One assay has as its target ALPK1 (Homo sapiens (Human), UniProt Q96QP1). Put plainly: ALPK1 in vitro kinase assay (HTRF of TIFA phosphorylation). Format: biochemical.
Another assay addresses hALPK1-V1092A (Homo sapiens (Human), UniProt Q96QP1, V1092A). Nature of the assay: cell-based.
Assay [1] has as its system ALPK1-dependent NFκB reporter gene activation in HEK293 cells stably expressing an NF-kB reporter (G9 cells). Nature of the assay: NFκB gene reporter alkaline phosphatase assay. Format: cell-based. Conditions: read-out: NFkB assay IC50. A digest of the protocol:
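Read-out: chromogenic pNPP turnover by NF-kB-driven alkaline phosphatase in G9 cells (HEK293, stable reporter). Compound pre-incubation 30 min before agonist D-glycero-D-manno-6-fluoro-heptose-1β-S-ADP. IC50 by four-parameter logistic regression.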

[2] abbreviates: ALPK1 2 nM, TIFA substrate, ADP-Heptose activator, HTRF readout.

Like-named read-outs stand apart in the source and are kept apart here.

IC50 data for 28 molecules are collected here from US20240109853A1 (Shanghai Yao Yuan Biotechnology Co., Ltd., priority 2020, published 2024).

hALPK1-V1092A, sequence (Q96QP1 whole entry V1092A): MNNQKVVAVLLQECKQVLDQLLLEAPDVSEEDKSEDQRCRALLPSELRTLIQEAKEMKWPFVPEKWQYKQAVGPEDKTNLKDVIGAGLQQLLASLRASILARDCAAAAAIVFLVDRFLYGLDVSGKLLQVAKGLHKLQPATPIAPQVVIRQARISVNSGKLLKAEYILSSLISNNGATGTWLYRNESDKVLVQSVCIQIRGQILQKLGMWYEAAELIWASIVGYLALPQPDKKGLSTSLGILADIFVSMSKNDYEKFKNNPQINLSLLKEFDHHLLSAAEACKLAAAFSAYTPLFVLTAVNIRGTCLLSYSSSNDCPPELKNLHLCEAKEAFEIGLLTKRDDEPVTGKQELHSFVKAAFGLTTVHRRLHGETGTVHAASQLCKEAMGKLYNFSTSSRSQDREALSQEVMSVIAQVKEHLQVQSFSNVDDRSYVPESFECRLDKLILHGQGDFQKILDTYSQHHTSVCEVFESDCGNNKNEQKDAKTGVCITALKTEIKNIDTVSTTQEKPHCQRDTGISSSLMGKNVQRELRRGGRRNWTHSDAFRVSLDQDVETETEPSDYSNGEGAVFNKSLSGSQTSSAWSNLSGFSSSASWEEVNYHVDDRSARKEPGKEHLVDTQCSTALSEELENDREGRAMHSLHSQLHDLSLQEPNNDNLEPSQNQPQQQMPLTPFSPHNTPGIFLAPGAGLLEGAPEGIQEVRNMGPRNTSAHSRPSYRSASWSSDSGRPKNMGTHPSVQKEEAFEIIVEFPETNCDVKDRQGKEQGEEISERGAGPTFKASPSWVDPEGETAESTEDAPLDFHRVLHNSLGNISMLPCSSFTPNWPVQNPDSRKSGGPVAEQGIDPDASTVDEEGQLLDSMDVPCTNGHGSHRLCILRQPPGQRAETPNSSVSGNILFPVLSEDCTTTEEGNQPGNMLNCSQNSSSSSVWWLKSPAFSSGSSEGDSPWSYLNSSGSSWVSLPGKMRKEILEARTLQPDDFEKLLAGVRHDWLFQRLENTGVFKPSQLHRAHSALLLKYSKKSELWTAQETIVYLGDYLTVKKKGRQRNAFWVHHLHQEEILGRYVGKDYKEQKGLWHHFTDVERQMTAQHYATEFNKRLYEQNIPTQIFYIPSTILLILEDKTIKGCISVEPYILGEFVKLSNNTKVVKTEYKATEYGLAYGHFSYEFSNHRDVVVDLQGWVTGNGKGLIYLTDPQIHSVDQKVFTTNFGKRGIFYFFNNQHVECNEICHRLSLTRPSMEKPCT
ALPK1, sequence (Q96QP1 whole entry): as the sequence (Q96QP1 whole entry V1092A) above, with A1092V counted along it
Experimental for hALPK1-V1092A: Accordingly, we used IL-8 secretion as an indicator of activated ALPK1 inhibition in cells expressing these mutations.
Transfection was performed according to manufacturer's protocols (Lipofectamine™ 3000, ThermoFisher). Transfected cells were selected, seeded onto 96-well plates and treated with serial dilutions of the test compounds for 6.5 hr. Following treatment, cell viability was determined using a luminescent cell viability assay (Cell Counting-Lite Assay or “CCL Assay” from Vazyme Biotech Co., Ltd.) and cell free supernatants were collected and analyzed for IL-8 protein by IL-8 ELISA as described above.
Fresh medium and compound were added at 18 hours. Cell viability and IL-8 secretion were determined 6 hours after the second addition of compound, using the CCL assay and IL-8 ELISA as described above.

Turning to `C#C[C@](C)(c1ccc(C)cc1)c1csc(NC(=O)c2c(F)cc(N3CCNCC3)cc2F)n1` (stereo in doubt) [Example C040, 2,6-difluoro-N-[4-[1-methyl-1-(p-tolyl)prop-2-ynyl]thiazol-2-yl]-4-piperazin-1-yl-benzamide], the IC50 on ALPK1 (setting [2]) was found to be 29 nM; against hALPK1-V1092A, 68 nM.
As to `C#C[C@@](C)(c1ccc(Cl)c(F)c1)c1csc(NC(=O)c2c(F)cc(N3CCNCC3)cc2F)n1` (stereo in doubt) [Example C038, N-(4-(2-(4-chloro-3-fluorophenyl)but-3-yn-2-yl)thiazol-2-yl)-2,6-difluoro-4-(piperazin-1-yl)benzamide], the IC50 was 17 nM at ALPK1 (setting [2]) and 352 nM at hALPK1-V1092A.
Consider `C#C[C@](C)(c1ccc(F)cc1)c1csc(NC(=O)c2c(F)cc(N3CCNCC3)cc2F)n1` (stereo in doubt) [Example C034, 2,6-difluoro-N-(4-(2-(4-fluorophenyl)but-3-yn-2-yl)thiazol-2-yl)-4-(piperazin-1-yl)benzamide], for which the IC50 amounted to 40 nM against ALPK1 (setting [2]) and 277 nM against hALPK1-V1092A.
As for `C#C[C@@](C)(c1ccc(Cl)cc1)c1csc(NC(=O)NC(C)CO)n1` (stereo in doubt) [Example A313, 1-(4-(2-(4-chlorophenyl)but-3-yn-2-yl)thiazol-2-yl)-3-(1-hydroxypropan-2-yl)urea], the IC50 was determined as 10200 nM against hALPK1-V1092A and 2820 nM in assay [1].
`C#C[C@@](C)(c1ccc(Cl)cc1)c1csc(NC(=O)NCC(C)O)n1` (stereo in doubt) [Example A317, 1-(4-(2-(4-chlorophenyl)but-3-yn-2-yl)thiazol-2-yl)-3-(2-hydroxypropyl)urea]: the IC50 against hALPK1-V1092A turned out to be 1930 nM; in assay [1] (Homo sapiens, HEK293), 970 nM.
For the molecule `C#C[C@](C)(c1ccc(Cl)cc1)c1csc(NC(=O)NCC(C)O)n1` (stereo in doubt) [Example A316, 1-(4-(2-(4-chlorophenyl)but-3-yn-2-yl)thiazol-2-yl)-3-(2-hydroxypropyl)urea], the IC50 against hALPK1-V1092A came out at 16400 nM; in assay [1] (Homo sapiens, HEK293), 1810 nM.
On to `C#C[C@@](C)(c1ccc(Cl)cc1)c1csc(NC(=O)NC(C)CO)n1` (stereo in doubt) [Example A312, 1-(4-(2-(4-chlorophenyl)but-3-yn-2-yl)thiazol-2-yl)-3-(1-hydroxypropan-2-yl)urea], for which the IC50 against hALPK1-V1092A was found to be 16000 nM; in assay [1] (Homo sapiens, HEK293), 2120 nM.
`C#C[C@](C)(c1ccc(Cl)cc1)c1csc(NC(=O)c2c(F)ccc(N3CCNCC3)c2F)n1` (stereo in doubt) [Example B075, N-(4-(2-(4-chlorophenyl)but-3-yn-2-yl)thiazol-2-yl)-2,6-difluoro-3-(piperazin-1-yl)benzamide]: the IC50 is 308 nM at ALPK1 (setting [2]) and 13000 nM at hALPK1-V1092A.
In the case of `C#C[C@](C)(c1ccc(Cl)c(F)c1)c1csc(NC(=O)c2c(F)cc(N3CCNCC3)cc2F)n1` (stereo in doubt) [Example C037, N-(4-(2-(4-chloro-3-fluorophenyl)but-3-yn-2-yl)thiazol-2-yl)-2,6-difluoro-4-(piperazin-1-yl)benzamide], the figures for the IC50 against ALPK1 (setting [2]) and against hALPK1-V1092A were 151 nM and 8300 nM, respectively.
For the molecule `C#CC(C)(c1ccc(F)cc1)c1csc(NC(=O)c2c(F)cc(N3CCNCC3CO)cc2F)n1` (centres unmarked) [Example B099, 2,6-difluoro-N-[4-[1-(4-fluorophenyl)-1-methyl-prop-2-ynyl]thiazol-2-yl]-4-[2-(hydroxymethyl)piperazin-1-yl]benzamide], the IC50 at ALPK1 (setting [2]) amounted to 30 nM; against hALPK1-V1092A it was 427 nM.
Take `C#C[C@@](C)(c1ccc(F)cc1)c1csc(NC(=O)c2c(F)cc(N3CCNCC3)cc2F)n1` (stereo in doubt) [Example C035, 2,6-difluoro-N-(4-(2-(4-fluorophenyl)but-3-yn-2-yl)thiazol-2-yl)-4-(piperazin-1-yl)benzamide]: the IC50 turned out to be 19 nM against ALPK1 (setting [2]) and 67 nM at hALPK1-V1092A.
`C#C[C@@](C)(c1ccc(Cl)cc1)c1csc(NC(=O)c2c(F)ccc(N3CCNCC3)c2F)n1` (stereo in doubt) [Example B076, N-(4-(2-(4-chlorophenyl)but-3-yn-2-yl)thiazol-2-yl)-2,6-difluoro-3-(piperazin-1-yl)benzamide]: the IC50 stood at 85 nM against ALPK1 (setting [2]) and 128 nM against hALPK1-V1092A.
As for `C#C[C@@](C)(c1ccc(Cl)cc1)c1csc(NC(=O)NCC(C)O)n1` (stereo in doubt) [Example A319, 1-(4-(2-(4-chlorophenyl)but-3-yn-2-yl)thiazol-2-yl)-3-(2-hydroxypropyl)urea], the IC50 against hALPK1-V1092A was 7860 nM; in assay [1] it was 670 nM.
With `C#C[C@@](C)(c1ccc(C)cc1)c1csc(NC(=O)c2c(F)cc(N3CCNCC3)cc2F)n1` (stereo in doubt) [Example C041, 2,6-difluoro-N-[4-[1-methyl-1-(p-tolyl)prop-2-ynyl]thiazol-2-yl]-4-piperazin-1-yl-benzamide], the IC50 worked out at 7 nM at ALPK1 (setting [2]) and 954 nM against hALPK1-V1092A.
As for `C#C[C@](C)(c1ccc(Cl)cc1)c1csc(NC(=O)NC(C)CO)n1` (stereo in doubt) [Example A314, 1-(4-(2-(4-chlorophenyl)but-3-yn-2-yl)thiazol-2-yl)-3-(1-hydroxypropan-2-yl)urea], the IC50 at hALPK1-V1092A amounted to 4000 nM; in assay [1] (Homo sapiens, HEK293), 800 nM.
As to `COCC(C)(c1ccc(Cl)cc1)c1csc(NC(=O)c2c(F)cc(N3CCNCC3)cc2F)n1` (centres unmarked) [Example C016, N-(4-(2-(4-chlorophenyl)-1-methoxypropan-2-yl)thiazol-2-yl)-2,6-difluoro-4-(piperazin-1-yl)benzamide], the IC50 is 16 nM on ALPK1 (setting [2]) and 1590 nM at hALPK1-V1092A.
With `C#Cc1ccc(C(C)(C#C)c2csc(NC(=O)c3c(F)cc(N4CCNCC4)cc3F)n2)cc1` (centres unmarked) [Example C042, N-[4-[1-(4-ethynylphenyl)-1-methyl-prop-2-ynyl]thiazol-2-yl]-2,6-difluoro-4-piperazin-1-yl-benzamide], the values for the IC50 against ALPK1 (setting [2]) and at hALPK1-V1092A were 101 nM and 225 nM, respectively.
The corresponding values for `C#CC(C)(c1ccc(OC)cc1)c1csc(NC(=O)c2c(F)cc(N3CCNCC3CO)cc2F)n1` (centres unmarked) [Example B100, 2,6-difluoro-4-[2-(hydroxymethyl)piperazin-1-yl]-N-[4-[1-(4-methoxyphenyl)-1-methyl-prop-2-ynyl]thiazol-2-yl]benzamide] are 21 nM and 429 nM.
For `C#C[C@](C)(c1ccc(Cl)cc1)c1csc(NC(=O)c2ccc(N3CCNCC3)cc2)n1` (stereo in doubt) [Example B068, N-(4-(2-(4-chlorophenyl)but-3-yn-2-yl)thiazol-2-yl)-4-(piperazin-1-yl)benzamide], the IC50 at ALPK1 (setting [2]) stood at 530 nM; on hALPK1-V1092A it was 27100 nM.
In the case of `COC[C@@](C)(c1ccccc1)c1csc(NC(=O)c2c(F)cc(N3CCNCC3)cc2F)n1` [Example C018, (S)-2,6-difluoro-N-(4-(1-methoxy-2-phenylpropan-2-yl)thiazol-2-yl)-4-(piperazin-1-yl)benzamide], the IC50 against ALPK1 (setting [2]) stood at 36 nM; at hALPK1-V1092A, 1920 nM.
For `C#C[C@@](C)(c1ccc(Cl)cc1)c1csc(NC(=O)c2ccc(N3CCNCC3)cc2)n1` (stereo in doubt) [Example B067, N-(4-(2-(4-chlorophenyl)but-3-yn-2-yl)thiazol-2-yl)-4-(piperazin-1-yl)benzamide], the results for the IC50 at ALPK1 (setting [2]) and against hALPK1-V1092A were 90 nM and 215 nM, respectively.
With `C#C[C@@](C)(c1ccc(Cl)cc1)c1csc(NC(=O)c2c(F)cc(N3CCN(C)CC3)cc2F)n1` [Example C011, (S)-N-(4-(2-(4-chlorophenyl)but-3-yn-2-yl)thiazol-2-yl)-2,6-difluoro-4-(4-methylpiperazin-1-yl)benzamide], the IC50 against ALPK1 (setting [2]) was determined as 18 nM; against hALPK1-V1092A, 353 nM.
For `CC(c1ccccc1)(c1ccc(Cl)cc1)c1csc(NC(=O)c2c(F)cc(N3CCNCC3)cc2F)n1` (centres unmarked) [Example C046, N-(4-(1-(4-chlorophenyl)-1-phenylethyl)thiazol-2-yl)-2,6-difluoro-4-(piperazin-1-yl)benzamide], the IC50 is 377 nM against ALPK1 (setting [2]) and 4450 nM on hALPK1-V1092A.
As for `CC#CC(C)(c1ccc(Cl)cc1)c1csc(NC(=O)c2c(F)cc(N3CCNCC3)cc2F)n1` (centres unmarked) [Example C039, N-(4-(2-(4-chlorophenyl)pent-3-yn-2-yl)thiazol-2-yl)-2,6-difluoro-4-(piperazin-1-yl)benzamide], the IC50 on ALPK1 (setting [2]) is 36 nM; against hALPK1-V1092A, 959 nM.
On to `CC(c1ccccc1)c1csc(NC(=O)c2c(F)cc(N3CCNCC3)cc2F)n1` (centres unmarked) [Example C002, 2,6-difluoro-N-(4-(1-phenylethyl)thiazol-2-yl)-4-(piperazin-1-yl)benzamide], for which the results for the IC50 at ALPK1 (setting [2]) and on hALPK1-V1092A were 47 nM and 3370 nM, respectively.
With `C#C[C@@](C)(c1ccc(OC)cc1)c1csc(NC(=O)c2c(F)cc(N3CCNCC3)cc2F)n1` (stereo in doubt) [Example C048, 2,6-difluoro-N-(4-(2-(4-methoxyphenyl)but-3-yn-2-yl)thiazol-2-yl)-4-(piperazin-1-yl)benzamide], the IC50 at ALPK1 (setting [2]) came out at 16 nM; against hALPK1-V1092A it was 5570 nM.
As for `Cc1nc(N2CCNCC2)ncc1CNC(=O)Nc1nc(C(C)(C)c2ccc(Br)cc2)cs1` [Example A089, 1-(4-(2-(4-bromophenyl)propan-2-yl)thiazol-2-yl)-3-((4-methyl-2-(piperazin-1-yl)pyrimidin-5-yl)methyl)urea], the IC50 against ALPK1 was determined as 26 nM; in assay [1] (Homo sapiens, HEK293), 1190 nM.
The corresponding values for `C#C[C@](C)(c1ccc(Cl)cc1)c1csc(NC(=O)NC(C)(C)CO)n1` (stereo in doubt) [Example A293, 1-(4-(2-(4-chlorophenyl)but-3-yn-2-yl)thiazol-2-yl)-3-(1-hydroxy-2-methylpropan-2-yl)urea] are 9360 nM and 8110 nM.
